As a reminder, the AC50 is the concentration giving half of the maximal activity seen.

Records with an inconclusive call do not appear. Calls of active or inactive are those of the source.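 Rule for the calls: active = luminescence falls with dose and the fitted half-maximal concentration is within ten times the top dose in every run; inconclusive = runs disagree, or a flat moderate drop, or a poor fit; inactive = every run inactive, including rises or flat response.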

These results are taken from PubChem BioAssay AID493101 (Broad Institute, 2011).

System in one assay: not listed separately
Briefly: LuxS/LuxPQ-dependent luminescence inhibition, V. harveyi – dry powder, set 4, dose response (AID 493101). As to conditions: Vibrio harveyi JMH597 AI-2 quorum sensing luminescence, 9 h; at 16 µM (top of the series).
Take `CC(=O)Nc1ccccc1NS(=O)(=O)c1cn(C)cn1`: the activity change, negative = inhibition was 2.17% (inactive).

`COc1ccccc1NS(=O)(=O)c1cn(C)cn1`: the activity change, negative = inhibition is -5.36% (inactive).

On to `Cn1cnc(S(=O)(=O)Nc2ccccc2Cl)c1`, for which the activity change, negative = inhibition is 3.87% (inactive).

Take `Cc1ccccc1NS(=O)(=O)c1cn(C)cn1`: the activity change, negative = inhibition is -1.44% (inactive).

Consider `Cn1cnc(S(=O)(=O)Nc2ccccc2F)c1`, for which the activity change, negative = inhibition was 2.07% (inactive).

Regarding `CCc1ccc(-c2ccc(C(=O)O)n2CC)cc1`, the activity change, negative = inhibition was 2.4% (inactive).

Take `CN(C)C(=O)c1ccccc1NS(=O)(=O)c1cn(C)cn1`: the activity change, negative = inhibition is 0.404% (inactive).

A further assay relates to Vibrio harveyi JMH597 AI-2 quorum sensing luminescence, 9 h. Described as above.
Conditions: not given
Regarding `O=S(=O)(Nc1ccccn1)c1ccc(Oc2ccccc2)cc1`, the concentration at half-maximal activity (AC50) was 7.34 µM.

`CCc1ccc(-c2ccc(C(=O)O)n2C)cc1`: the AC50 was 5.52 µM.

For `O=S(=O)(Nc1cccnc1)c1ccc(Oc2ccccc2)cc1`, the AC50 was 0.766 µM.

As to `Cn1cnc(S(=O)(=O)Nc2ccc(OC(F)(F)F)cc2)c1`, the AC50 is 8.62 µM.

On to `C=Cn1c(C(=O)O)ccc1-c1ccc(CC)cc1`, for which the AC50 is 3.22 µM.

Turning to `O=C1C=C/C(=C/Br)O1`, the concentration at half-maximal activity (AC50) is 4.64 µM.
